Results taken from patent US12116368B2, “Pyrrolo[2,3-d]pyrimidine tosylate salt, crystalline form thereof and manufacturing process and intermediates thereto” (Pfizer Inc., priority 2018, dated 2024).
Several values for one entry are separate records, joined by “and”; a condition that tells them apart may be missing. Identical values can stand only once.

Assay: Solid state stability under accelerated stability conditions (70° C./75% RH, one week), monitoring purity
Type: physicochemical
Settings: for Initial Purity: API purity before the accelerated stability stress test; for Solid state stability compared with amorphous free base and malonate salt: accelerated stability conditions 70° C./75% RH, one week; for Final Purity (post stress test): after one week at 70° C./75% RH, solid state; for Recommended storage condition for use as an API: assigned from the accelerated stability result
Procedure: The solid state stability is monitored using accelerated stability conditions (70° C./75% RH) for one week and then monitoring appearance, purity and form change. These accelerated conditions are used to assign an initial use period for the API.

C=CC(=O)N1C[C@H](Nc2ncnc3[nH]ccc23)CC[C@@H]1C.O=P(O)(O)O [Phosphate salt, 1-((2S,5R)-5-((7H-Pyrrolo[2,3-d]pyrimidin-4-yl)amino)-2-meth-ylpiperidin-1-yl)prop-2-en-1-one Phosphoric Acid Salt (Form A)]
Initial Purity: 99.6%
Solid state stability compared with amorphous free base and malonate salt: significantly improved
Final Purity (post stress test): 99.5%

C=CC(=O)N1C[C@H](Nc2ncnc3[nH]ccc23)CC[C@@H]1C.O=C(O)CC(=O)O [Malonate salt, 1-((2S,5R)-5-((7H-Pyrrolo[2,3-d]pyrimidin-4-yl)amino)-2-methyl-piperidin-1-yl)prop-2-en-1-one Malonic Acid Salt (Form 1)]
Initial Purity: 99.5%
Initial Purity (listed as malonate salt): 99.5%
Final Purity (post stress test): 81.6%
Final Purity (post stress test) (listed as malonate salt): 81.6%
Recommended storage condition for use as an API: would require refrigeration

C=CC(=O)N1C[C@H](Nc2ncnc3[nH]ccc23)CC[C@@H]1C [Amorphous Free base, 1-((2S,5R)-5-((7H-Pyrrolo[2,3-d]pyrimidin-4-yl)amino)-2-methylpiperidin-1-yl)prop-2-en-1-one]
Initial Purity: 99.3%
Final Purity (post stress test): 41.3& %

C=CC(=O)N1C[C@H](Nc2ncnc3[nH]ccc23)CC[C@@H]1C.Cc1ccc(S(=O)(=O)O)cc1 [Tosylate salt, 1-((2S,5R)-5-((7H-Pyrrolo[2,3-d]pyrimidin-4-yl)amino)-2-meth-ylpiperidin-1-yl)prop-2-en-1-one p-Toluenesulfonic Acid Salt (Form 1)]
Initial Purity: 99.1% and 99.6%
Solid state stability compared with amorphous free base and malonate salt: significantly improved
Final Purity (post stress test): 97.7% and 99.6%
Recommended storage condition for use as an API: would not require refrigerated storage conditions
